Measurements as given in patent US5202315A, “Cephalosporin compounds” (Lucky, Ltd., priority 1989, dated 1993).
Converted amounts (≈) assume the structure as drawn. Like-named read-outs stand apart in the source and are kept apart here.

Key:
[1] = tested on: Acinetobacter calcoaceticus ATCC 15473; assay: Antibacterial activity, MIC; assay type: cell-based; settings: ATCC15473, ATCC 15473, agar two-fold dilution, 37° C., 20 hours, read-out: MIC
Procedure, shortened: (§1)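 Agar two-fold dilution method: compound serially diluted two-fold in Mueller-Hinton agar, spotted with 2 μl of a 10^7 CFU/ml inoculum of each standard strain, then incubated at 37 °C for 20 h.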

[2] = tested on: Bacillus cereus ATCC 11778; assay: Antibacterial activity, MIC; assay type: cell-based; settings: ATCC11778, ATCC 11778, agar two-fold dilution, 37° C., 20 hours, read-out: MIC
Procedure, shortened: as §1

[3] = tested on: Bacillus megaterium ATCC 9885; assay: Antibacterial activity, MIC; assay type: cell-based; settings: Priestia megaterium, ATCC9885; ATCC 9885; agar two-fold dilution, 37° C., 20 hours; read-out: MIC
Procedure, shortened: as §1

[4] = tested on: Citrobacter freundii ATCC 8090; assay: Antibacterial activity, MIC; assay type: cell-based; settings: ATCC8090, ATCC 8090, agar two-fold dilution, 37° C., 20 hours, read-out: MIC
Procedure, shortened: as §1

[5] = tested on: Enterobacter aerogenes ATCC 29751; assay: Antibacterial activity, MIC; assay type: cell-based; settings: Klebsiella aerogenes, ATCC29751; ATCC 29751; agar two-fold dilution, 37° C., 20 hours; read-out: MIC
Procedure, shortened: as §1

[6] = tested on: Enterobacter cloacae ATCC 27508; assay: Antibacterial activity, MIC; assay type: cell-based; settings: ATCC27508, ATCC 27508, agar two-fold dilution, 37° C., 20 hours, read-out: MIC
Procedure, shortened: as §1

[7] = tested on: Escherichia coli ATCC 10536; assay: Antibacterial activity, MIC; assay type: cell-based; settings: ATCC10536, agar two-fold dilution, 37° C., 20 hours
Procedure, shortened: as §1

[8] = tested on: Escherichia coli ATCC 25922; assay: Antibacterial activity, MIC; assay type: cell-based; settings: ATCC25922, agar two-fold dilution, 37° C., 20 hours
Procedure, shortened: as §1

[9] = tested on: Klebsiella pneumoniae ATCC 10031; assay: Antibacterial activity, MIC; assay type: cell-based; settings: ATCC10031, ATCC 10031, agar two-fold dilution, 37° C., 20 hours, read-out: MIC
Procedure, shortened: as §1

[10] = tested on: Micrococcus luteus ATCC 9341; assay: Antibacterial activity, MIC; assay type: cell-based; settings: ATCC9341, ATCC 9341, agar two-fold dilution, 37° C., 20 hours, read-out: MIC
Procedure, shortened: as §1

[11] = tested on: Morganella morganii ATCC 8076h; assay: Antibacterial activity, MIC; assay type: cell-based; settings: ATCC8076H, agar two-fold dilution, 37° C., 20 hours
Procedure, shortened: as §1

[12] = tested on: Proteus mirabilis ATCC 25933; assay: Antibacterial activity, MIC; assay type: cell-based; settings: ATCC25933, ATCC 25933, agar two-fold dilution, 37° C., 20 hours, read-out: MIC
Procedure, shortened: as §1

[13] = tested on: Proteus vulgaris ATCC 6059; assay: Antibacterial activity, MIC; assay type: cell-based; settings: ATCC6059, ATCC 6059, agar two-fold dilution, 37° C., 20 hours, read-out: MIC
Procedure, shortened: as §1

[14] = tested on: Providencia rettgeri ATCC 9250; assay: Antibacterial activity, MIC; assay type: cell-based; settings: ATCC9250, agar two-fold dilution, 37° C., 20 hours
Procedure, shortened: as §1

[15] = tested on: Pseudomonas aeruginosa ATCC 10145; assay: Antibacterial activity, MIC; assay type: cell-based; settings: ATCC10145, ATCC 10145, agar two-fold dilution, 37° C., 20 hours, read-out: MIC
Procedure, shortened: as §1

[16] = tested on: Pseudomonas aeruginosa ATCC 25619; assay: Antibacterial activity, MIC; assay type: cell-based; settings: ATCC25619, ATCC 25619, agar two-fold dilution, 37° C., 20 hours, read-out: MIC
Procedure, shortened: as §1

[17] = tested on: Pseudomonas aeruginosa ATCC 27853; assay: Antibacterial activity, MIC; assay type: cell-based; settings: ATCC27853, ATCC 27853, agar two-fold dilution, 37° C., 20 hours, read-out: MIC
Procedure, shortened: as §1

[18] = tested on: Salmonella typhimurium ATCC 14028; assay: Antibacterial activity, MIC; assay type: cell-based; settings: Salmonella enterica; ATCC 14028; agar two-fold dilution, 37° C., 20 hours; read-out: MIC
Procedure, shortened: as §1

[19] = tested on: Serratia marcescens ATCC 27117; assay: Antibacterial activity, MIC; assay type: cell-based; settings: ATCC27117, ATCC 27117, agar two-fold dilution, 37° C., 20 hours, read-out: MIC
Procedure, shortened: as §1

[20] = tested on: Shigella flexneri ATCC 11836; assay: Antibacterial activity, MIC; assay type: cell-based; settings: ATCC11836, agar two-fold dilution, 37° C., 20 hours
Procedure, shortened: as §1

[21] = tested on: Shigella sonnei ATCC 11060; assay: Antibacterial activity, MIC; assay type: cell-based; settings: ATCC11060, ATCC 11060, agar two-fold dilution, 37° C., 20 hours, read-out: MIC
Procedure, shortened: as §1

[22] = tested on: Staphylococcus aureus ATCC 6538p; assay: Antibacterial activity, MIC; assay type: cell-based; settings: ATCC6538P, ATCC 6538p, agar two-fold dilution, 37° C., 20 hours, read-out: MIC
Procedure, shortened: as §1

[23] = tested on: Staphylococcus epidermidis ATCC 12228; assay: Antibacterial activity, MIC; assay type: cell-based; settings: ATCC12228, ATCC 12228, agar two-fold dilution, 37° C., 20 hours, read-out: MIC
Procedure, shortened: as §1

Klebsiella pneumoniae = assay: Antibacterial activity against clinically isolated strains, MIC; assay type: cell-based; settings: 10 clinical isolates, broth microdilution test; for MIC90: read-out: MIC 90%
[24] = tested on: Staphylococcus aureus methicillin susceptible; assay: as above; assay type: cell-based; settings: methicillin susceptible, 42 clinical isolates, broth microdilution test; for MIC90: read-out: MIC 90%
[25] = tested on: Staphylococcus aureus methicillin resistant; assay: as above; assay type: cell-based; settings: methicillin resistant, 7 clinical isolates, broth microdilution test; for MIC90: read-out: MIC 90%
Pseudomonas aeruginosa = assay: as above; assay type: cell-based
[26] = In-vivo absorbency (plasma concentrations & pharmacokinetic parameters); set-up: species or system SD rat (male); settings: plasma, SD male rat, iv 20 mg/kg, read-out: Plasma Conc.
[27] = 54 clinical isolates, broth microdilution test

| SMILES | MIC [1] [µg/mL] | MIC [2] [µg/mL] | MIC [3] [µg/mL] | MIC [4] [µg/mL] | MIC [5] [µg/mL] | MIC [6] [µg/mL] | MIC [7] [µg/mL] | MIC [8] [µg/mL] | MIC [9] [µg/mL] | MIC [10] [µg/mL] | MIC [11] [µg/mL] | MIC [12] [µg/mL] | MIC [13] [µg/mL] | MIC [14] [µg/mL] | MIC [15] [µg/mL] | MIC [16] [µg/mL] | MIC [17] [µg/mL] | MIC [18] [µg/mL] | MIC [19] [µg/mL] | MIC [20] [µg/mL] | further results |
| --- | --- | --- | --- | --- | --- | --- | --- | --- | --- | --- | --- | --- | --- | --- | --- | --- | --- | --- | --- | --- | --- |
| CCO/N=C(\C(=O)NC1C(=O)N2C(C(=O)[O-])=C(CSc3nc(N)cc(N)[n+]3N)CSC12)c1csc(N)n1 (stereo not shown) [Compound I-16] | 4 (≈ 7.06 µM) | 4 (≈ 7.06 µM) | 0.063 (≈ 0.111 µM) | 0.063 (≈ 0.111 µM) | 0.25 (≈ 0.441 µM) | 0.016 (≈ 0.0282 µM) | 0.063 (≈ 0.111 µM) | 0.063 (≈ 0.111 µM) | ≤ 0.008 | 0.016 (≈ 0.0282 µM) | ≤ 0.008 | 0.13 (≈ 0.229 µM) | 0.13 (≈ 0.229 µM) | ≤ 0.008 | 4 (≈ 7.06 µM) | 0.5 (≈ 0.882 µM) | 2 (≈ 3.53 µM) | 0.25 (≈ 0.441 µM) | 0.13 (≈ 0.229 µM) | 0.016 (≈ 0.0282 µM) | MIC [21]: 0.063 µg/mL (≈ 0.111 µM); MIC [22]: 0.25 µg/mL (≈ 0.441 µM); MIC [23]: 0.063 µg/mL (≈ 0.111 µM); MIC50 (Klebsiella pneumoniae): 0.13 µg/mL (≈ 0.229 µM); MIC90 (Klebsiella pneumoniae): 0.13 µg/mL (≈ 0.229 µM); MIC50 [24]: 0.25 µg/mL (≈ 0.441 µM); MIC90 [24]: 0.25 µg/mL (≈ 0.441 µM); MIC50 [25]: > 32 µg/mL; MIC90 [25]: > 32 µg/mL; MIC90 (Pseudomonas aeruginosa): 16 µg/mL (≈ 28.2 µM); MIC50 (Pseudomonas aeruginosa; [27]): 4 µg/mL (≈ 7.06 µM); concentration at 1 min [26]: 149 µg/mL; concentration at 2.5 min [26]: 106 µg/mL; concentration at 5 min [26]: 79 µg/mL; concentration at 10 min [26]: 52 µg/mL; concentration at 20 min [26]: 32 µg/mL; concentration at 40 min [26]: 13 µg/mL |
| Cc1c(N)nc(SCC2=C(C(=O)[O-])N3C(=O)C(NC(=O)/C(=N\OC(C)(C)C(=O)O)c4csc(N)n4)C3SC2)[n+](C)c1N (stereo not shown) [Compound I-30] | 4 (≈ 6.27 µM) | 128 (≈ 201 µM) | 0.5 (≈ 0.784 µM) | 0.13 (≈ 0.204 µM) | 2 (≈ 3.14 µM) | 0.063 (≈ 0.0988 µM) | 0.063 (≈ 0.0988 µM) | 0.063 (≈ 0.0988 µM) | 0.063 (≈ 0.0988 µM) | 0.5 (≈ 0.784 µM) | ≤ 0.008 | 0.031 (≈ 0.0486 µM) | 0.063 (≈ 0.0988 µM) | ≤ 0.008 | 2 (≈ 3.14 µM) | 2 (≈ 3.14 µM) | 2 (≈ 3.14 µM) | 0.25 (≈ 0.392 µM) | 0.13 (≈ 0.204 µM) | 0.031 (≈ 0.0486 µM) | MIC [21]: 0.063 µg/mL (≈ 0.0988 µM); MIC [22]: 4 µg/mL (≈ 6.27 µM); MIC [23]: 2 µg/mL (≈ 3.14 µM); MIC50 (Klebsiella pneumoniae): 0.13 µg/mL (≈ 0.204 µM); MIC90 (Klebsiella pneumoniae): 0.25 µg/mL (≈ 0.392 µM); MIC50 [24]: 2 µg/mL (≈ 3.14 µM); MIC90 [24]: 4 µg/mL (≈ 6.27 µM); MIC50 [25]: > 128 µg/mL; MIC90 [25]: > 128 µg/mL; MIC50 (Pseudomonas aeruginosa; [27]): 2 µg/mL (≈ 3.14 µM); MIC90 (Pseudomonas aeruginosa; 54 clinical isolates, broth microdilution test, read-out: MIC 90%): 4 µg/mL (≈ 6.27 µM); concentration at 1 min [26]: 148 µg/mL; concentration at 2.5 min [26]: 100 µg/mL; concentration at 5 min [26]: 80 µg/mL; concentration at 10 min [26]: 54 µg/mL; concentration at 20 min [26]: 29 µg/mL; concentration at 40 min [26]: 17 µg/mL; concentration at 2.5 h ([26]; 150 min): 1.3 µg/mL |
| CCC[n+]1c(N)cc(N)nc1SCC1=C(C(=O)[O-])N2C(=O)C(NC(=O)/C(=N\OC(C)C(=O)O)c3csc(N)n3)C2SC1 (stereo not shown) [Compound I-45] | 8 (≈ 12.5 µM) | 64 (≈ 100 µM) | 0.5 (≈ 0.784 µM) | 0.063 (≈ 0.0988 µM) | 1 (≈ 1.57 µM) | 0.016 (≈ 0.0251 µM) | 0.063 (≈ 0.0988 µM) | 0.063 (≈ 0.0988 µM) | 0.063 (≈ 0.0988 µM) | 0.5 (≈ 0.784 µM) | ≤ 0.008 | 0.063 (≈ 0.0988 µM) | 0.063 (≈ 0.0988 µM) | ≤ 0.008 | 4 (≈ 6.27 µM) | 1 (≈ 1.57 µM) | 2 (≈ 3.14 µM) | 0.25 (≈ 0.392 µM) | 0.13 (≈ 0.204 µM) | 0.031 (≈ 0.0486 µM) | MIC [21]: 0.063 µg/mL (≈ 0.0988 µM); MIC [22]: 2 µg/mL (≈ 3.14 µM); MIC [23]: 1 µg/mL (≈ 1.57 µM); MIC50 (Klebsiella pneumoniae): 0.13 µg/mL (≈ 0.204 µM); MIC90 (Klebsiella pneumoniae): 0.13 µg/mL (≈ 0.204 µM); MIC50 [24]: 2 µg/mL (≈ 3.14 µM); MIC90 [24]: 2 µg/mL (≈ 3.14 µM); MIC50 [25]: > 128 µg/mL; MIC90 [25]: > 128 µg/mL; MIC90 (Pseudomonas aeruginosa): 16 µg/mL (≈ 25.1 µM); MIC50 (Pseudomonas aeruginosa; [27]): 4 µg/mL (≈ 6.27 µM); concentration at 1 min [26]: 147 µg/mL; concentration at 2.5 min [26]: 84 µg/mL; concentration at 5 min [26]: 67 µg/mL; concentration at 10 min [26]: 52 µg/mL; concentration at 20 min [26]: 29 µg/mL; concentration at 40 min [26]: 16 µg/mL |
